The values below come from ChEMBL document CHEMBL1154684, “Cytotoxicity of new n-butylamino and sulfur-containing derivatives of polyfluorinated 1,4-naphthoquinone” (Eur J Med Chem, 2010).

Converted amounts (≈) assume the structure as drawn. The source made the active and inactive calls. The calls are words filed in the database; no cut-off is given here.

Experiment [1] in a line: Cytotoxicity against mouse LMTK at 173 uM after 72 hrs by MTT assay.
Experiment [2] has as its system MCF7. Put plainly: Cytotoxicity against human MCF7 after 72 hrs by MTT assay. It counts as functional, cell-based.
Experiment [3] relates to RPMI-8226. Put plainly: Cytotoxicity against human RPMI8226 after 72 hrs by MTT assay. It counts as functional, cell-based.
Experiment [4] deals with Salmonella typhimurium. The experiment can be described thus: Antimutagenic activity in Salmonella Typhimurium TA102 assessed as inhibition of H2O2-induced mutagenesis at 0.05 to […] after 48 hrs by Ames test. Format: functional, organism-based. Conditions: Salmonella enterica subsp. enterica serovar Typhimurium. Background: The Ames test uses bacterial strains that need an amino acid and regain growth without it when mutated back.

The test system of experiment [5] is Salmonella typhimurium. The experiment can be described thus: Antimutagenic activity in Salmonella Typhimurium TA102 assessed as inhibition of H2O2-induced mutagenesis at 26.9 uM after 48 hrs by Ames test. It counts as functional, organism-based, Salmonella enterica subsp. enterica serovar Typhimurium.
The test system of experiment [6] is RPMI-8226. The experiment can be described thus: Cytotoxicity against human RPMI8226 at 25 ug/ml after 72 hrs by MTT assay. Format: functional. Conditions: RPMI-8226, 72 h. A general note: Tetrazolium assays rely on reduction of a dye to a coloured formazan, in cell work by metabolically active cells.
Experiment [7] concerns MCF7. The experiment can be described thus: Cytotoxicity against human MCF7 at 25 ug/ml after 72 hrs by MTT assay. Format: functional, cell-based. Conditions: MCF7, 72 h.
Experiment [8] relates to Salmonella typhimurium. The experiment can be described thus: Antimutagenic activity in Salmonella Typhimurium TA102 assessed as inhibition of H2O2-induced mutagenesis at 23.5 uM after 48 hrs by Ames test. Format: functional, Salmonella enterica subsp. enterica serovar Typhimurium. Conditions: Salmonella enterica, TA102, 48 h.

One may read the IC50 as the concentration needed to halve the response being measured. Higher therefore signals weaker potency in that assay. Consider `CC1=C(SCCO)C(=O)c2c(F)c(F)c(F)c(F)c2C1=O`, for which the IC50 entry in experiment [1] was “Not Active”; in experiment [2], 173 µg/mL (≈ 540 µM); in experiment [3] it was 14.8 µg/mL (≈ 46.2 µM).
One may read the Inhibition as how much of the control response was suppressed. The inhibition is the drop in the measured response relative to a control, in per cent. As for `CCCCNC1=C(F)C(=O)c2c(F)c(NCCCC)c(F)c(F)c2C1=O`, in experiment [4], the result was Active. Further, the Inhibition in experiment [5] was 81%. The figures for the inhibition at 25 µg/mL in experiment [6] and in experiment [7] were 17% and 10%, respectively.
With `CCCCNC1=C(F)C(=O)c2c(F)c(NCCCC)c(F)c(NCCCC)c2C1=O`, the result in experiment [4] was Active. Further, the inhibition at 25 µg/mL in experiment [6] was determined as 30%; in experiment [7] it was 45%. Moreover, in experiment [8], the inhibition at 23.5 µM stood at 55%.
